{
  "source": "paper PMC11144398",
  "about": "“Crizotinib inhibits the metabolism of tramadol by non-competitive suppressing the activities of CYP2D1 and CYP3A2” (PeerJ, 2024)",
  "format_in_all_cases": "in vitro ADME",
  "key": {"[1]": {"test_system": "tramadol metabolism (O-desmethyl tramadol production) in rat liver microsomes", "test": "Liver microsomal incubation assay: inhibition of tramadol metabolism (O-desmethyl tramadol production) in RLM", "conditions": "rat, tramadol 60 µM", "experimental": "(§1) All the substance meet the requirements for analysis.\n(§2) To obtain the Michaelis kinetic parameters of tramadol in RLM and HLM, a 200 µL incubation system was established containing 2 µL RLM or HLM (0.2 mg/mL), 186 µL 1xPBS buffer (pH = 7.4), 2 µL tramadol (10–500 µM), and 10 µL NADPH (1 mM). The mixture was pre-incubated for 5 min without NADPH in a water bath shaking at 37 °C. Then, NADPH was added to initiate the reaction, and the mixture was incubated for another 30 min. The reaction was terminated by adding 400 µL of cold ACN and 20 µL of IS (500 ng/mL).\n(§3) For drug-interaction screening, 100 µM of each drug (1.6 µL) was added to the system, and added PBS to the final volume of 200 uL. Tramadol concentration was set at 60 µM according to the Km.\n(§4) To determine the half-maximal inhibitory concentration (IC50), the concentration of crizotinib was set at 0.01, 0.1, 1, 10, 25, 50, and 100 µM, while the concentration of tramadol was constant at 60 µM in RLM or 100 µM in HLM (according to Km).\n(§5) All data were presented as mean ± SD (standard deviation)."}, "[2]": {"test_system": "tramadol metabolism in rat liver microsomes (RLM)", "test": "Liver microsomal incubation assay: inhibition of tramadol metabolism (O-desmethyl tramadol production) in RLM", "conditions": "RLM", "experimental": "as §1, §2, §3, §4, §5"}, "[3]": {"test_system": "tramadol metabolism in human liver microsomes (HLM)", "test": "Liver microsomal incubation assay: inhibition of tramadol metabolism in HLM", "experimental": "as §1, §2, §4, §5"}, "[4]": {"test_system": "tramadol metabolism in human liver microsomes", "test": "Liver microsomal incubation assay: inhibition of tramadol metabolism in HLM", "conditions": "human, human liver microsomes, pH 7.4, probe tramadol 100 µM, tramadol 100 µM, crizotinib 0.01-100 µM", "experimental": "as §1, §2, §4, §5"}, "[5]": {"molecular_target": "T1, CYP2D1 (Rattus norvegicus, UniProt P10633)", "T1 construct": "All liver tissue samples were extracted into liver microsomes by homogenization and centrifugation; from tissue; host or cells: liver microsomes of Sprague-Dawley rats (control or dosed with crizotinib)", "T1 sequence (P10633 1-504)": "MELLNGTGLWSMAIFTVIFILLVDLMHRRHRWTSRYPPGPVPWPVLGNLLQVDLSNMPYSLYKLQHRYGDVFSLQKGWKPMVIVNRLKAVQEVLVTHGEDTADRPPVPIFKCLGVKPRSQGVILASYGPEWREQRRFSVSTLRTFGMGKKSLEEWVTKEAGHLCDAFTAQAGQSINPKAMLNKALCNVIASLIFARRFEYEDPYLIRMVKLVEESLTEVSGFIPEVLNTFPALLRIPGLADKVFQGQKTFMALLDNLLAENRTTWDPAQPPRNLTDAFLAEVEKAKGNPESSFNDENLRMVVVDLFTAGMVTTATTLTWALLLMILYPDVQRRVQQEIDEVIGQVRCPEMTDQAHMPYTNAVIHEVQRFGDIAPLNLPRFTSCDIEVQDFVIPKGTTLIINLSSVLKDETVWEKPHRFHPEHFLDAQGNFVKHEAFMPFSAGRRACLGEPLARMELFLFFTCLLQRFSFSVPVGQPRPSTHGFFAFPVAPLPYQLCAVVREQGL", "test": "Activity of CYP2D1 in liver microsomes of treated rats (dextromethorphan probe)", "experimental": "(§6) Nine rats were randomly divided into three groups (n = 3): group E received 0.5% CMC-Na for 7 days; group F received 45 mg/kg crizotinib for 6 days; and group G received 45 mg/kg of crizotinib for 7 days. […] The blood, liver, kidney, and small intestine were harvested within 10 min and flash-frozen in liquid nitrogen before being transferred to −80 °C for later use.\nAll liver tissue samples were extracted into liver microsomes by homogenization and centrifugation, following the same operational steps as previously reported ([Simpson, 2010]). A new incubation system was established, which included 2 µL dextromethorphan or midazolam (the probe substrate of CYP2D1 or CYP3A2), 2 uL RLM (0.2 mg/mL) from different groups, 186 µL 1xPBS buffer, and 10 µL NADPH (1 mM). […] UPLC-MS/MS was used to detect the concentration of dextrorphan and 1-hydroxymidazolam to determine whether the activities of CYP2D1 and CYP3A2 in the liver were affected by crizotinib."}, "[6]": {"test_system": "total CYP in rat liver microsomes", "test": "Carbon monoxide differential UV spectrophotometric quantification of total CYP", "conditions": "RLM from crizotinib-treated rats (45 mg/kg); CO quantitative method", "experimental": "as §6\nThe CO quantitative method was utilized to measure the total quantity of CYP in rat liver microsomes. The microsomes were transferred to a 1.5 mL centrifuge tube and CO gas was introduced for 60 s. Next, sodium dithionite powder was added and mixed thoroughly. After two minutes, the absorbance of the liquid was measured at 450 nm and 490 nm ultraviolet wavelengths using an ultraviolet and visible spectrophotometer to calculate the total amount of CYP."}},
  "data": [
    {"compound": "C[C@@H](Oc1cc(-c2cnn(C3CCNCC3)c2)cnc1N)c1c(Cl)ccc(F)c1Cl", "note": "[crizotinib]", "values": [
      {"measurement": "inhibition at 30 min, 100 µM", "setting": "[1]; pH 7.4, RLM, 100 µM of each drug, vs control group, read-out: inhibitory rate on tramadol metabolism (production of O-desmethyl tramadol)", "result": 97.2, "unit": "%"},
      {"measurement": "IC50 at 30 min", "setting": "[1]; pH 7.4, RLM, crizotinib 0.01-100 µM", "result": "8.74 ± 0.18", "unit": "µM"},
      {"measurement": "inhibition mode of tramadol metabolism", "setting": "[2]; Lineweaver-Burk plot", "result": "non-competitive"},
      {"measurement": "Ki", "setting": "[2]; Lineweaver-Burk, crizotinib 0, 4, 8, 16 µM, tramadol 15-120 µM", "result": 4.17, "unit": "µM"},
      {"measurement": "inhibition mode of tramadol metabolism", "setting": "[3]; Lineweaver-Burk plot", "result": "non-competitive"},
      {"measurement": "Ki", "setting": "[3]; Lineweaver-Burk, crizotinib 0, 5, 10, 20 µM, tramadol 25-200 µM", "result": 14.4, "unit": "µM"},
      {"measurement": "IC50 at 30 min", "setting": "[4]", "result": "11.9 ± 0.25", "unit": "µM"},
      {"measurement": "metabolic rate of dextromethorphan (CYP2D1 activity)", "setting": "[5]; RLM from crizotinib-treated rats (45 mg/kg), dextromethorphan 25 µM", "result": "decreased to different extents"},
      {"measurement": "metabolic rate of dextromethorphan (CYP2D1 activity)", "setting": "[5]; crizotinib administered for seven days", "result": "significant decrease"},
      {"measurement": "total amount of CYP", "setting": "[6]", "result": "decreased"}
    ]}
  ]
}
